Results published in patent US7816347B2, “Pharmaceutical compositions comprising NEP-inhibitors, inhibitors of the endogenous endothelin producing system and HMG CoA reductase inhibitors” (Solvay Pharmaceuticals GmbH, priority 2004, dated 2010).
Where two headings read alike, the source gives them in different places. Marks after values point to notes of the source that are not given here.

What was measured:
[1] = test system: spontaneously hypertensive rat; conditions: in food
Source text: Male spontaneously hypertensive rats (=SHR; insulin resistant strain from Charles River; aged 6 months) were equipped with telemetry transmitters for continuous monitoring of blood pressure and heart rate (TA11PA-C40, DSI, USA). Telemetry transmitters for continuous monitoring of blood pressure, heart rate and locomotor activity (TA11PA-C40, Data Sciences, USA) were implanted intraabdominally under inhalative halothane anesthesia. A midline abdominal incision was made, and the abdominal aorta was visualized by removal of retroperitoneal fat and connective tissue. A ligature was placed caudal of the renal arteries, the aorta was punctured with a 22G needle, and the catheter was advanced into the aorta. The entry point was sealed with tissue adhesive (Vetbond™, 3M, USA), the ligature was removed, and the abdominal incision was closed. Measurements of aortic pressure were taken every 5 minutes (=min) for 4 seconds (=s) each at a sampling rate of 500 Hz, and were corrected for the corresponding ambient pressure (ambient pressure monitor, C11PR, Data Sciences, USA).
In a further study performed with a new batch of SHR equipped with telemetry-transmitters as described above, the animals were divided into two groups receiving the HMG CoA reductase inhibitor atorvastatin or a combination of atorvastatin+daglutril. Compounds were mixed into the food, and the daily drug intake was measured by weighing the unconsumed food four times weekly. Intended daily doses were 40 mg/kg/day of atorvastatin and in addition, in the combination group, 100 mg/kg/day of daglutril.
Concentrations of atorvastatin and daglutril in the food were adjusted once per week.
For the statistical analysis, the effects of atorvastatin and atorvastatin+daglutril were calculated by subtracting the baseline value (pre) measured on the last day prior to the start of treatment (day 3) from that measured on day 25 (i.e. on the penultimate day of the treatment period) for each animal. The statistical comparison was done by using a two-sided unpaired Student's t-test.

[2] = test system: spontaneously hypertensive rat; assay: Telemetric blood pressure and heart rate in SHR; daglutril, simvastatin or simvastatin+daglutril via drinking water; type: in vivo; conditions: for DBP, change from baseline / HR, change from baseline / SBP, change from baseline: 24 h mean, day 23 minus baseline (day 3), intended 40 mg/kg/day simvastatin, 100 mg/kg/day daglutril, n = 4-5
Method: In a first experiment, after 3 days of monitoring under baseline (untreated) conditions, animals received daglutril via the drinking water. The intended daily dose was 100 mg/kg/day of daglutril. The concentration in drinking water was adjusted once per week, resulting in an average drug intake of 98 mg/kg/day.
Concentrations of simvastatin and daglutril in the drinking water were adjusted once per week, in order to ensure the intended daily intake of 40 and 100 mg/kg, respectively. The average daily water intake amounted to 33 and 36 ml/kg in the simvastatin and simvastatin+daglutril group, respectively, resulting in the uptake of 36 mg/kg/day of simvastatin in the simvastatin group, and 37 mg/kg/day of simvastatin and 93 mg/kg/day of daglutril in the combination group.
These 24 h means were exported to Excel®, and group mean values of systolic (SBP), diastolic blood pressure (DBP), heart rate (HR), and locomotor activity (ACT) were calculated daily. For the statistical analysis, the effects of simvastatin and simvastatin+daglutril were calculated by subtracting the baseline value (pre) measured on the last day prior to compound application (day 3) from that value measured on day 23 (i.e. on the penultimate day of the treatment period) for each animal. The statistical comparison was done by using univariate ANOVA at an error level of P<0.05.

[3] = test system: human subjects with congestive heart failure; assay: Single dose study of oral daglutril during 12-hour right heart catheterization; subgroup analysis by concomitant HMG CoA reductase inhibitor; type: in vivo; conditions: CHF patients, single oral dose of daglutril (200, 400 or 800 mg groups), with or without concomitant HMG CoA reductase inhibitor; value (SE)
Method: A randomized, placebo-controlled, parallel group, multi-center, single dose study of oral daglutril (vide supra) during 12-hour right heart catheterization in human subjects with congestive heart failure (=CHF) was performed. Each subject received one dose of daglutril or placebo. The study consisted of three visits (or study days when in-subjects were included). Ambulatory subjects were in hospital for two nights and one day. […]
The primary efficacy parameter was the maximum decrease from baseline over 6 hours for SVR and was compared between treatment groups using analysis of covariance, with the baseline value as covariate and center and NYHA classification as factors. […] In addition, the existence of a dose-response relationship for daglutril was evaluated by investigating linear, quadratic and cubic contrasts. The secondary efficacy parameter was the maximum change from baseline over 6 hours for PCWP and was analyzed in the same way as the primary variable. The maximum decrease from baseline over 12 hours, the change from for each individual time point and the adjusted area under the curve (=AUC) over 6 and 12 hours were analyzed for SVR and PCWP, using similar statistical methodology as for the main parameter of interest. […]

[4] = 24 h mean, day 25 minus baseline (day 3), intended 40 mg/kg/day atorvastatin, 100 mg/kg/day daglutril, n = 6

Question: For `CC(C)c1c(C(=O)Nc2ccccc2)c(-c2ccccc2)c(-c2ccc(F)cc2)n1CC[C@@H](O)C[C@@H](O)CC(=O)O` [Atorvastatin, atorvastatin], which “DBP, change from baseline” value [1, 4] is on record?
Answer: 3.2 mmHg

Question: And the “HR, change from baseline” value [1, 4]?
Answer: -25.3 min⁻¹

Question: And the “SBP, change from baseline” value [1, 4]?
Answer: 3.5 mmHg

Question: And the “Effect on blood pressure (both SBP and DBP) (in words)” value ([1]; SHR)?
Answer: increase in blood pressure

Question: For `CCC(C)(C)C(=O)O[C@H]1C[C@@H](C)C=C2C=C[C@H](C)[C@H](CC[C@@H]3C[C@@H](O)CC(=O)O3)[C@H]21` [Simvastatin, simvastatin], which “DBP, change from baseline” value [2] is on record?
Answer: 4.7 mmHg

Question: What about the “HR, change from baseline” value [2] of the same molecule?
Answer: -4.2 min⁻¹

Question: And the “SBP, change from baseline” value [2]?
Answer: 4.2 mmHg

Question: For `CCOC(=O)C(CCc1ccccc1)CC1(C(=O)NC2CCc3ccccc3N(CC(=O)O)C2=O)CCCC1` (stereo not drawn) [daglutril, 2-[1-(1-carboxymethyl-2-oxo-2,3,4,5-tetrahydro-1H-benzo[b]azepin-3-ylcarbamoyl)-cyclopentylmethyl]-4-phenyl-butyric acid ethyl ester], which “DBP, change from baseline” value [2] is on record?
Answer: 2.0* mmHg

Question: And the “HR, change from baseline” value [2]?
Answer: -6.0 min⁻¹

Question: What about the “SBP, change from baseline” value [2] of the same molecule?
Answer: −0.3* mmHg

Question: And the “Effect on blood pressure (in words)” value ([2]; SHR)?
Answer: no effect on blood pressure

Question: And the “Placebo corrected mean change of MPAP (average 0.5-6 hrs)” value [3]?
Answer: −2.26 (1.05) mm Hg
